Measurements reported in patent US11045457B2, “Piperidinyl-3-(aryloxy)propanamides and propanoates” (priority 2018, dated 2021).

Experiments:
SSTR4 [1] = biological target: T1, SSTR4 (Homo sapiens (Human), UniProt P31391); test: Inhibition of forskolin stimulated cAMP in CHO-K1 cells overexpressing SSTR4; type: cell-based
How it was run: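 Read-out is a HTRF LANCE Ultra cAMP competition using Eu-labelled streptavidin and biotin-cAMP, incubated 60 min at room temperature. It followed a 30 min room-temperature exposure of Kreb's Ringer-washed cells to compound plus forskolin. Potency is expressed as pEC50.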

SSTR4 [2] = biological target: T1, SSTR4; test: SSTR4 I-125 somatostatin competition binding assay (membranes from CHO-K1 cells overexpressing SSTR4); settings: competition with I-125 labeled somatostatin
SSTR1 = SSTR1 (Homo sapiens (Human), UniProt P30872); test: SSTR1 I-125 somatostatin competition binding assay for selectivity versus SSTR4 (membranes from CHO-K1 cells overexpressing SSTR1); settings: competition with I-125 labeled somatostatin, CHO-K1 SSTR1 membranes;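 note: Filter-based radioligand binding, bound label counted by scintillation after 60 min incubation at room temperature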
Chain of SSTR1 (P30872 whole entry): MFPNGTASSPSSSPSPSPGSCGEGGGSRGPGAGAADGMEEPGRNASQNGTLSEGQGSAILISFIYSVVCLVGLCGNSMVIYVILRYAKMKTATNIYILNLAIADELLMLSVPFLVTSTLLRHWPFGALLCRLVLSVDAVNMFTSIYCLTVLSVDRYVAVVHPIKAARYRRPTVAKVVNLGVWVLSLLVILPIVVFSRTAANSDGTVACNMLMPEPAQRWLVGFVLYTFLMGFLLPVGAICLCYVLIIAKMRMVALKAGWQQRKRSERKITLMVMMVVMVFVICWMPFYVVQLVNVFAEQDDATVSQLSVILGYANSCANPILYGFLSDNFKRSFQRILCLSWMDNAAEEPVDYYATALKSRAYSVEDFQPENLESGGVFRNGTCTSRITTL
Procedure: Membranes from CHO-K1 cells overexpressing SSTR1 are purchased from Perkin Elmer (catalog number ES-520-M400UA). […] Then 10 μg of SSTR1 membranes in 50 μL assay buffer are added per well. The plate is incubated for 60 minutes at room temperature. […] The contents of the assay plate are transferred to filters with a TomTech harvester and washed 5 times with 20 mM HEPES, 100 mM NaCl. […] The scintillator sheets are melted to the filters using a heat block. The filters are then read in a MicroBeta scintillation counter. Binding Ki curves are generated using Activity Base for Screening Data Management and the results are reported as pIC50.

T1 sequence (P31391 whole entry): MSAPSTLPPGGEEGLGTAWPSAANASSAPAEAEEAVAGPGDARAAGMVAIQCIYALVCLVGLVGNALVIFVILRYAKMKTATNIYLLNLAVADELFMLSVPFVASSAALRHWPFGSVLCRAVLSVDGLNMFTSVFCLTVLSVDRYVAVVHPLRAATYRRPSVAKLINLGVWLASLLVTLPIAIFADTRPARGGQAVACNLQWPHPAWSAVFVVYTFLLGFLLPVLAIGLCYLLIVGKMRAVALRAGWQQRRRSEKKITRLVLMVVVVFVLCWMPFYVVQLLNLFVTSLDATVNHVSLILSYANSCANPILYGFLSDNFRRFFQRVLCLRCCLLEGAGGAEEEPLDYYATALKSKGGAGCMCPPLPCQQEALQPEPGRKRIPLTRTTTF

| Structure (SMILES) | SSTR4 Activity pEC50 (SSTR4 [1]) | SSTR4 Binding pIC50 (SSTR4 [2]) | SSTR1 Binding pIC50 (SSTR1) |
| --- | --- | --- | --- |
| C[C@@H]1CN(C)CC[C@H]1NC(=O)C(C)(C)COc1ccccc1Cl (relative stereo) [Example 186, trans-3-(2-chlorophenoxy)-N-(1,3-dimethylpiperidin-4-yl)-2,2-dimethylpropanamide] | 8.1 | 7.4 | 5.5 |
| CN1CCC(NC(=O)C(C)(C)COc2ncccc2C(F)(F)F)CC1 [Example 41, 2,2-dimethyl-N-(1-methylpiperidin-4-yl)-3-((3-(trifluoromethyl)pyridin-2-yl)oxy)propanamide] | 7.4 | 6.4 | 4.2 |
| CN1CCC(NC(=O)C(C)(C)COc2ncccc2C2CC2)CC1 [Example 47, 3-((3-cyclopropylpyridin-2-yl)oxy)-2,2-dimethyl-N-(1-methylpiperidin-4-yl)propanamide] | 8.1 | 7.1 | 4.8 |
| CN1CC[C@@H](NC(=O)C(C)(C)COc2ncccc2C2CC2)C1 [Example 53, (R)-3-((3-cyclopropylpyridin-2-yl)oxy)-2,2-dimethyl-N-(1-methylpyrrolidin-3-yl)propanamide] | 7.4 | 6.6 | 4.6 |
| CN1CCC(NC(=O)C(C)(C)COc2ccccc2C(F)(F)F)CC1 [Example 64, 2,2-dimethyl-N-(1-methylpiperidin-4-yl)-3-(2-(trifluoromethyl)phenoxy)propanamide] | 7.9 | 7.0 | 5.1 |
| CN1CC[C@@H](NC(=O)C(C)(C)COc2ccccc2C(F)(F)F)C1 [Example 65, (R)-2,2-dimethyl-N-(1-methylpyrrolidin-3-yl)-3-(2-(trifluoromethyl)phenoxy)propanamide] | 7.9 | 7.0 | 5.1 |
| CN1CCC(NC(=O)C(C)(C)COc2ccccc2Cl)CC1 [Example 66, 3-(2-chlorophenoxy)-2,2-dimethyl-N-(1-methylpiperidin-4-yl)propanamide] | 7.7 | 7.0 | 4.9 |
| CN1CCC(NC(=O)C(C)(C)COc2ccccc2Br)CC1 [Example 67, 3-(2-bromophenoxy)-2,2-dimethyl-N-(1-methylpiperidin-4-yl)propanamide] | 8.1 | 7.4 | 5.1 |
| CN1CC[C@@H](NC(=O)C(C)(C)COc2ccccc2Cl)C1 [Example 68, (R)-3-(2-chlorophenoxy)-2,2-dimethyl-N-(1-methylpyrrolidin-3-yl)propanamide] | 7.5 | 6.8 | 4.6 |
| CN1CC[C@@H](NC(=O)C(C)(C)COc2ccccc2Br)C1 [Example 69, (R)-3-(2-bromophenoxy)-2,2-dimethyl-N-(1-methylpyrrolidin-3-yl)propanamide] | 8.4 | 7.2 | 5.2 |
| CN1CCC(NC(=O)C(C)(C)COc2ccccc2C2CC2)CC1 [Example 70, 3-(2-cyclopropylphenoxy)-2,2-dimethyl-N-(1-methylpiperidin-4-yl)propanamide] | 8.4 | 7.6 | 5.5 |
| CN1CC[C@@H](NC(=O)C(C)(C)COc2ccccc2C2CC2)C1 [Example 71, (R)-3-(2-cyclopropylphenoxy)-2,2,-dimethyl-N-(1-methylpyrrolidin-3-yl)propanamide] | 8.3 | 7.3 | 5.3 |
| CCc1ccccc1OCC(C)(C)C(=O)NC1CCN(C)CC1 [Example 72, 3-(2-ethylphenoxy)-2,2-dimethyl-N-(1-methylpiperidin-4-yl)propanamide] | 8.1 | 7.1 | 4.8 |
| Cc1ccccc1OCC(C)(C)C(=O)NC1CCN(C)CC1 [Example 76, 2,2-dimethyl-N-(1-methylpiperidin-4-yl)-3-(o-tolyloxy)propanamide] | 7.7 | 6.7 | 4.7 |
| CN1CCC(NC(=O)C(C)(C)COc2ncccc2OC(F)(F)F)CC1 [Example 92, 2,2-dimethyl-N-(1-methylpiperidin-4-yl)-3-((3-(trifluoromethoxy)pyridin-2-yl)oxy)propanamide] | 7.7 | 6.8 | 4.8 |
| CN1CCC(NC(=O)C(C)(C)COc2ccccc2OC(F)(F)F)CC1 [Example 102, 2,2-dimethyl-N-(1-methylpiperidin-4-yl)-3-(2-(trifluoromethoxy)phenoxy)propanamide] | 8.7 | 7.8 | 5.6 |
| CCc1ccccc1OCC(C)(C)C(=O)NC1CCN(CC(=O)c2ccc(Cl)cc2)CC1 [Example 104, N-(1-(2-(4-chlorophenyl)-2-oxoethyl)piperidin-4-yl)-3-(2-ethylphenoxy)-2,2-dimethylpropanamide] | 9.2 | 8.0 | 4.8 |
| CN1CCC(NC(=O)C(C)(C)COc2ncccc2C(F)(F)F)C2(CC2)C1 (stereo not drawn) [Example 114, 2,2-dimethyl-N-(5-methyl-5-azaspiro[2.5]octan-8-yl)-3-((3-(trifluoromethyl)pyridin-2-yl)oxy)propanamide] | 8.0 | 6.9 | 4.6 |
| CN1CC[C@H](NC(=O)C(C)(C)COc2ncccc2C(F)(F)F)[C@@H](F)C1 [Example 117, N-((3S,4S)-3-fluoro-1-methylpiperidin-4-yl)-2,2-dimethyl-3-((3-(trifluoromethyl)pyridin-2-yl)oxy)propanamide] | 7.6 | 6.7 | 4.5 |
| CN1CCC(NC(=O)C(C)(C)COc2ncccc2OC(F)(F)F)C2(CC2)C1 (stereo not drawn) [Example 119, 2,2-dimethyl-N-(5-methyl-5-azaspiro[2.5]octan-8-yl)-3-((3-(trifluoromethoxy)pyridin-2-yl)oxy)propanamide] | 9.0 | 7.3 | 5.0 |
| CN1CC[C@H](NC(=O)C(C)(C)COc2ncccc2C2CC2)[C@@H](F)C1 [Example 123, 3-((3-cyclopropylpyridin-2-yl)oxy)-N-((3S,4S)-3-fluoro-1-methylpiperidin-4-yl)-2,2-dimethylpropanamide] | 7.8 | 7.2 | 4.9 |
| CN1CC[C@H](NC(=O)C(C)(C)COc2ncccc2OC(F)(F)F)[C@@H](F)C1 [Example 124, N-((3S,4S)-3-fluoro-1-methylpiperidin-4-yl)-2,2-dimethyl-3-((3-(trifluoromethoxy)pyridin-2-yl)oxy)propanamide] | 7.6 | 7.4 | 5.1 |
| CN1CC(NC(=O)C(C)(C)COc2ncccc2C(F)(F)F)C2(CC2)C1 (stereo not drawn) [Example 138, 2,2-dimethyl-N-(5-methyl-5-azaspiro[2.4]heptan-7-yl)-3-((3-(trifluoromethyl)pyridin-2-yl)oxy)propanamide] | 8.0 | 7.2 | 5.7 |
| Cc1cccnc1OCC(C)(C)C(=O)N[C@H]1CCN(C)C[C@@H]1C [Example 143, N-((3S,4S)-1,3-dimethylpiperidin-4-yl)-2,2-dimethyl-3-((3-methylpyridin-2-yl)oxy)propanamide] | 7.9 | 6.9 | 4.8 |
| C[C@@H]1C[C@H](NC(=O)C(C)(C)COc2ncccc2C2CC2)CCN1C [Example 147, 3-((3-cyclopropylpyridin-2-yl)oxy)-N-((2R,4R)-1,2-dimethylpiperidin-4-yl)-2,2-dimethylpropanamide] | 8.6 | 7.5 | 5.3 |
| CN1C[C@H](NC(=O)C(C)(C)COc2ncccc2C(F)(F)F)C2(CC2)C1 [Example 148, (R)-2,2-dimethyl-N-(5-methyl-5-azaspiro[2.4]heptan-7-yl)-3-((3-(trifluoromethyl)pyridin-2-yl)oxy)propanamide] | 8.1 | 7.4 | 5.8 |
| CN1C[C@H](NC(=O)C(C)(C)COc2ncccc2OC(F)(F)F)C2(CC2)C1 [Example 150, (R)-2,2-dimethyl-N-(5-methyl-5-azaspiro[2.4]heptan-7-yl)-3-((3-(trifluoromethoxy)pyridin-2-yl)oxy)propanamide] | 8.2 | 7.3 | 5.6 |
| C[C@H]1C[C@@H](NC(=O)C(C)(C)COc2ncccc2OC(F)(F)F)CCN1C [Example 152, N-((2S,4S)-1,2-dimethylpiperidin-4-yl)-2,2-dimethyl-3-((3-(trifluoromethoxy)pyridin-2-yl)oxy)propanamide] | 7.0 | 6.6 | 4.6 |
| C[C@@H]1C[C@H](NC(=O)C(C)(C)COc2ncccc2OC(F)(F)F)CCN1C [Example 179, N-((2R,4R)-1,2-dimethylpiperidin-4-yl)-2,2-dimethyl-3-((3-(trifluoromethoxy)pyridin-2-yl)oxy)propanamide] | 8.1 | 7.4 | 4.8 |
| CC(C)(COc1ccccc1Cl)C(=O)N[C@H]1CCNC[C@@H]1F [Example 187, 3-(2-chlorophenoxy)-N-((3S,4S)-3-fluoropiperidin-4-yl)-2,2-dimethylpropanamide] | 8.8 | 8.4 | 4.8 |
